Measured values from the METLIN SMRT retention time set (Domingo-Almenara et al. 2019).

Assay: gradient 5% acetonitrile 3 min, to 50% in 2 min, to 85% in 15 min, held 3 min, 100 µL/min
Details: column: Zorbax Extend-C18 2.1 x 50 mm; eluents: water / acetonitrile, 0.1% formic acid
How it was run: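 Data were gathered over 3 months by HPLC coupled to a quadrupole time-of-flight mass spectrometer, operated in positive and negative ionization mode. Mixtures of ~100 pure standards ran on a Zorbax Extend-C18 column (2.1 × 50 mm, 1.8 μm) at 100 μL/min, with water and acetonitrile each containing 0.1% formic acid and dead and dwell volumes of 40 μL and 900 μL. Retention time was read from adduct peaks picked by computer and checked manually.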

RP-LC retention time [s] | SMILES
688 | CC(C)NC(=O)c1ccc(OCC2CCCN(C(=O)C3CCCO3)C2)cc1 (configuration not stated)
656 | O=C(NCC1CCCO1)C1CCCN(c2ncnc3c2oc2ccccc23)C1 (configuration not stated)
1020 | CCc1cc(-c2csc(S(=O)(=O)NCc3ccc(Br)cc3)c2)on1
627 | COc1ccc(N2CCN(c3nc(C(=O)N4CCN(C(C)C)CC4)cs3)CC2)cc1
632 | COc1ccc(C2c3sc(=O)[nH]c3SC3C(=O)N(CC(=O)O)C(=O)C32)cc1 (configuration not stated)
990 | COc1cccc2nc(NC(=O)c3ccc(Br)s3)sc12
632 | CC1CCN(Cc2csc(N3CCN(C(=O)c4ccc5c(c4)OCO5)CC3)n2)CC1
666 | Cc1ccc(CS(=O)(=O)N2CCC(C3CCNC3)CC2)cc1C (configuration not stated)
608 | COc1ccc(-c2cc(N3CCN(C(=O)COc4ccc(C)cc4OC)CC3)ncn2)cc1
615 | Cc1cccc(CN2CCC(CNC(=O)C3CCCN(c4nccc(C)n4)C3)CC2)c1 (configuration not stated)
660 | Cc1nc(CC(=O)Nc2c(F)cccc2F)sc1C(=O)NC1CC1
833 | Cc1oc(-c2[nH]ncc2C(=O)N(C)C)cc1S(=O)(=O)NCc1ccccn1
842 | COc1cccc(CC2C(=O)Nc3ccc(Br)cc32)c1OC (configuration not stated)
655 | COc1ccc(-c2cc(N3CCC(NC(=O)c4ccc(OC)c(OC)c4)C3)n[nH]2)cc1 (configuration not stated)
666 | CNC(=O)CCc1nc2ccccc2n(CC(=O)NCc2ccc(F)cc2)c1=O
927 | COc1ccccc1-c1nc(-c2cn(Cc3ccc(F)cc3)nn2)no1
831 | Cn1c(C(=O)NCCCN2CCCC2=O)cc2c(-c3cccs3)nn(-c3ccccc3)c21
902 | O=C(c1ccco1)N1CCC(Oc2nc3ccc(F)cc3s2)CC1
673 | Cc1ccc2ncn3c(=O)n(CC(=O)Nc4ccc5c(c4)OCO5)nc3c2c1
743 | CCC(=O)N1CCc2cc(C(=O)NCc3cccs3)ccc21
715 | Cc1ccn2cc(C(=O)N3CCN(c4ccc(Cl)cc4)CC3)nc2c1
668 | CN(C)CCCNC(=O)C1CCN(c2nc3ccc(-c4ccccc4)nc3s2)CC1

RP-LC retention time [s] | SMILES
597 | CCN(CC)CCCNC(=O)C1c2ccccc2C(=O)N2CCc3cc(OC)c(OC)cc3C12 (configuration not stated)
752 | COc1ccc(NC(=O)C2CCN(S(=O)(=O)c3ccc4[nH]c(=O)ccc4c3)CC2)cc1Cl
665 | CCCN1CCN(C(=O)C2CCN(S(=O)(=O)c3ccc4c(c3)sc(=O)n4C(C)C)CC2)CC1
915 | O=C(NC1CCCC1)C1CCCN(c2nccn3nc(-c4ccccc4Cl)cc23)C1 (configuration not stated)
1200 | Cc1ccc(-c2noc(-c3cccc(S(=O)(=O)Nc4ccccc4)c3)n2)cc1
956 | Cc1ccc(S(=O)(=O)N2CC(=O)N(c3ccc(F)cc3)C(C)(C(=O)NC3CCCC3)C2)cc1 (configuration not stated)
724 | CCN(CC)c1cc2c(cc1NC(=O)c1ccco1)n(C)c(=O)c(=O)n2C
814 | COc1ccc(NC(=O)C2c3ccccc3C(=O)N3CCc4cc(OC)c(OC)cc4C23)c(OC)c1 (configuration not stated)
596 | Cc1ccc(C)c(NC(=O)N2CCN(CCn3cnc4cccnc43)CC2)c1
1010 | COc1ccc(-c2nc(CS(=O)(=O)c3ccc(C)cc3)no2)c(C)c1
1090 | N#CC1C=Cc2c(ccc3ccccc23)N1C(=O)c1ccccc1 (configuration not stated)
654 | COc1ccc(-c2nnc(-c3ccc(-n4ccnc4)nc3)o2)cc1
722 | COc1ccc(Cl)cc1S(=O)(=O)N1CCC(c2cc3n(n2)CCCNC3=O)CC1
1170 | COc1ccccc1C(=O)Nc1cnc(-c2ccc(Cl)cc2)nc1
872 | O=C(Nc1ccc2c(c1)CCC2)C1CCN(C(=O)c2ncn3c2COC(c2ccc(F)cc2)C3)CC1 (configuration not stated)
894 | Cn1cc(-c2noc(-c3cc(F)ccc3Cl)n2)ccc1=O
740 | COc1ccc(OC)c(NC(=O)Cn2nc3c4ccc(Cl)cc4ncn3c2=O)c1
651 | COc1ccc(N2CCN(C(=O)C3CCN(S(=O)(=O)c4cn(C)c(C)n4)CC3)CC2)cc1
969 | CCOc1cccc(CNC(=O)c2c(O)c3cccnc3[nH]c2=O)c1
995 | CCc1ccc(NC(=O)N2CCc3nc(-c4ccc(OC)cc4)ncc3C2)cc1
814 | COc1ccc(-c2cc3n(n2)CCCN(C(=O)NCCc2ccccc2)C3)cc1
897 | CCc1noc(NC(C)=O)c1-c1ccc(C)c(S(=O)(=O)Nc2ccc(C)cc2C)c1

RP-LC retention time [s] | SMILES
1190 | CC1CCCCN1S(=O)(=O)c1ccc(C(=O)Nc2nc3c(s2)Cc2ccccc2-3)cc1 (configuration not stated)
1010 | CC(C)c1ccc(S(=O)(=O)N2CCC(n3c(-c4ccoc4)nc4cccnc43)C2)cc1 (configuration not stated)
764 | COc1cc(CN2CCc3nc(N4CCC(C)CC4)ncc3C2)ccc1OC(C)C
999 | CCOc1ccc(S(=O)(=O)N2CCCC(C(=O)Nc3ccccc3)C2)cc1 (configuration not stated)
737 | COc1ccccc1CNC(=O)C1CCCN(c2nn3c(=O)c4c(nc3s2)CCCC4)C1 (configuration not stated)
779 | C=CCn1c(C)c(CC(=O)NCC(C)C)c(=O)n2nc(-c3ccccc3)nc12
819 | O=C(Nc1ccc2c(c1)CN(C(=O)c1ccccc1)CC2)c1ccc(Br)o1
878 | Cc1[nH]c(C(=O)N2CCC(CC(=O)NCc3ccc(Cl)cc3)CC2)c(C)c1C(=O)OC(C)C
625 | CC(C)n1cnnc1CC1CCN(C(=O)Nc2ccc3c(c2)OCCO3)CC1
1030 | CCOC(=O)c1ccccc1NC(=O)CSc1nnc2c3cc(-c4ccc(F)cc4)nn3ccn12
674 | Cn1c(=O)c(N2CCCC(C(=O)N3CCN(Cc4ccc5c(c4)OCO5)CC3)C2)nc2ccccc21 (configuration not stated)
833 | O=C(CSc1ccc(S(=O)(=O)C2CCCCC2)nn1)NCc1cc(F)cc(F)c1
625 | CCOCC(=O)N1CCCC(c2nc(CNC(=O)C(C)C)cs2)C1 (configuration not stated)
707 | COc1cc(NC(=O)C2CCN(S(=O)(=O)c3cn(C(C)C)cn3)CC2)cc(OC)c1OC
573 | COc1ccc(CN(C)Cc2cc(=O)n3ccccc3n2)cc1OC
680 | COc1cc(OC)cc(-c2nc(-c3ccc4c(c3)ncn4CCN3CCCCC3)no2)c1
684 | Cc1ccc(-n2cc(C(=O)O)nn2)cc1F
779 | O=C(c1ccc(OCC2CCCN2C(=O)c2ccc(F)c(F)c2)cc1)N1CCCC1 (configuration not stated)
992 | COC(=O)c1cc2c(=O)n(-c3ccc(Cl)c(C(F)(F)F)c3)ccc2nc1C
1150 | Cc1cccc(Sc2nccnc2N2CCCC(C(=O)NC(C)c3ccccc3)C2)c1 (configuration not stated)
655 | Cc1ccc(S(=O)(=O)N2CCC3(CCC(CN4CCN(C)CC4)O3)CC2)cc1Cl (configuration not stated)
675 | COc1ccc(CC(=O)Nc2c(C(=O)N3CCN(c4ccccn4)CC3)oc3ccccc23)cc1

RP-LC retention time [s] | SMILES
613 | N=C(N)n1c(N)nc2ccccc2c1=O
804 | CC1(C(=O)NCc2ccc(F)cc2)CCN(C(=O)Nc2ccc(F)cc2)CC1
843 | COc1cc(OC)cc(-c2nc(-c3ccc4ncn(C(C)C)c4c3)no2)c1
757 | O=C(O)c1cccc(Nc2c(-c3ccc(Cl)cc3)nc3cnccn23)c1
644 | Cc1nnc2c(NC(=O)C3CCCC3)cccn12
646 | CCOC(=O)c1c(C)c(CCC(=O)N2CCN(c3ccccn3)CC2)c(C)n1C
994 | COc1ccccc1-c1noc(Cn2c(=O)n(C(C)C)c(=O)c3ccccc32)n1
655 | COc1ccc(CNC(=O)Nc2cccc(-c3ccc(N4CCOCC4)nn3)c2)cc1
710 | CCc1ccc(NC(=O)Cn2cnc3nc(N4CCCC(C(=O)NC(C)C)C4)sc3c2=O)cc1 (configuration not stated)
829 | Cc1ccc(C)c(N2CCN(C(=O)c3cnc4ncnn4c3C)CC2)c1
630 | CN(CCNC(=O)c1ccc2c(c1)NC(=O)C1CCCCN21)Cc1ccccc1 (configuration not stated)
1080 | COc1ccc(Cl)cc1NC(=O)CC1CCCCN1S(=O)(=O)c1ccc(F)cc1 (configuration not stated)
1020 | CCc1ccc(S(=O)(=O)N2CCc3c(c(-c4nc(C5CC5)no4)nn3C)C2)cc1
932 | CC(C)CCNc1nc(-c2ccc(Cl)cc2)nc2ccccc12
680 | COc1ccc(NC(=O)C2CCc3sc(C(=O)N4CCCC4)cc3C2)cc1OC (configuration not stated)
789 | COc1ccccc1-c1cc(C(=O)N2CCN(c3ccc(=O)n(-c4ccc(F)cc4)n3)CC2)[nH]n1
862 | CC(C)NC(=O)N1CCCC(c2cccc(C(=O)NCc3ccc(F)cc3F)c2)C1 (configuration not stated)
741 | Cc1ccc(-c2nc3cccc(C)n3c2Nc2ccccc2)cc1
669 | CCc1c(C2CCN(C(=O)c3cc(C)on3)CC2)noc1N
590 | O=C1Nc2ccccc2SC1C(=O)N1CCC(C(=O)N2CCN(C3CCCCC3)CC2)CC1 (configuration not stated)
570 | CC(C)NC(=O)C1CCN(c2cncnc2N2CCOCC2)CC1
